Broadly, the inhibition is the relative decrease from the control value, in per cent.

For this experiment, the target named is T1, chimeric human H3 receptor (Homo sapiens, UniProt Q9Y5N1).
T1 construct: rat Galpha-i2 (Gnai2, rat); made in house; host or cells: Sf9 insect cells (baculovirus); P2 membranes
Kind of experiment: Chimeric human H3 receptor screening GTP binding assay (inhibition of histamine-stimulated GTP-gamma35S binding, Example 8). The format is biochemical. The note with it: 1 h; assay of Example 8; symbol "!" in column headed Ki; read-out: percent inhibition of agonist-induced GTP-gammaS binding to H3. In a few lines: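 Compound tested at 4 μM against 1 μM histamine stimulation; 125 pM GTP-gamma35S binding measured by filtration and scintillation after 60 min at room temperature. Membranes from Sf9 cells expressing chimeric human H3 plus G-protein subunits, in Tris pH 7.4/NaCl/MgCl2/GDP buffer; values are % inhibition after nonspecific subtraction.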
A general note: Binding of GTPγS marks nucleotide exchange on a G protein.

A value given as a limit tells only on which side of the number the result lay.

T1 sequence (Q9Y5N1 with tags, fused parts or gaps): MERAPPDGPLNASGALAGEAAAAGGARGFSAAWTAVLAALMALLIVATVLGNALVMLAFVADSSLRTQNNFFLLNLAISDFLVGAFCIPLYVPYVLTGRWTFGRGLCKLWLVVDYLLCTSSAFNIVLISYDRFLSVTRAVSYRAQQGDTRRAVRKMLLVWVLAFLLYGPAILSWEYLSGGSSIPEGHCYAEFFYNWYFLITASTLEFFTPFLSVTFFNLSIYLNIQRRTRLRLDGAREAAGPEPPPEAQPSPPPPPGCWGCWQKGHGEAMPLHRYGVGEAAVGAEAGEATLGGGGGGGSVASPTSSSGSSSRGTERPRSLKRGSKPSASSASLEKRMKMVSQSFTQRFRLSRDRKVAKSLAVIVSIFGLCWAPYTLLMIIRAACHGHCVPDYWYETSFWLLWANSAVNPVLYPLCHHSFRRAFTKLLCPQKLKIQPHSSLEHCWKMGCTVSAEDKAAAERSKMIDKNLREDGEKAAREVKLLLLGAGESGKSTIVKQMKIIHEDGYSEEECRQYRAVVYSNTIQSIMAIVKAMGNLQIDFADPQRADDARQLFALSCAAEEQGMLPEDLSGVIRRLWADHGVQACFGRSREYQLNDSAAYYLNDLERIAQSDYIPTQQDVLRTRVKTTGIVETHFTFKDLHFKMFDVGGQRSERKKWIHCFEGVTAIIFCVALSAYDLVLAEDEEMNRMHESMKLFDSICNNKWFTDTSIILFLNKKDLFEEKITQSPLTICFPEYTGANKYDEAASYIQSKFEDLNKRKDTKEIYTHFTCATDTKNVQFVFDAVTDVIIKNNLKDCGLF

Consider `Cc1ccc(C(C(=O)N2CCc3cnc(N4CCN(C5CCC5)CC4)nc3CC2)c2ccccc2)cc1` (centres unmarked) [Compound 356, 2-(4-cyclobutylpiperazin-1-yl)-7-[(4-methylphenyl)(phenyl)acetyl]-6,7,8,9-tetrahydro-5H-pyrimido[4,5-d]azepine], for which the inhibition at 4 µM is no less than 90%.
In the case of `CC(C(=O)N1CCc2cnc(N3CCN(C4CCC4)CC3)nc2CC1)(c1ccccc1)c1ccccc1` [Compound 357, 2-(4-cyclobutylpiperazin-1-yl)-7-(2,2-diphenylpropanoyl)-6,7,8,9-tetrahydro-5H-pyrimido[4,5-d]azepine] it was no less than 90%; in that of `O=C(C1c2ccccc2Oc2ccccc21)N1CCc2cnc(N3CCN(C4CCC4)CC3)nc2CC1` [Compound 358, 2-(4-cyclobutylpiperazin-1-yl)-7-(9H-xanthen-9-ylcarbonyl)-6,7,8,9-tetrahydro-5H-pyrimido[4,5-d]azepine], no less than 90%.
In the case of `Cc1cc(C)cc(C(=O)N2CCc3cnc(N4CCN(C5CCC5)CC4)nc3CC2)c1` [Compound 359, 2-(4-cyclobutylpiperazin-1-yl)-7-(3,5-dimethylbenzoyl)-6,7,8,9-tetrahydro-5H-pyrimido[4,5-d]azepine], the inhibition at 4 µM was no less than 90%.
For `Cc1ccc(C(=O)N2CCc3cnc(N4CCN(C5CCC5)CC4)nc3CC2)cc1C` [Compound 360, 2-(4-cyclobutylpiperazin-1-yl)-7-(3,4-dimethylbenzoyl)-6,7,8,9-tetrahydro-5H-pyrimido[4,5-d]azepine], the inhibition at 4 µM was no less than 90%.
To `O=C(c1ccc2ccccc2c1)N1CCc2cnc(N3CCN(C4CCC4)CC3)nc2CC1` [Compound 361, 2-(4-cyclobutylpiperazin-1-yl)-7-(2-naphthoyl)-6,7,8,9-tetrahydro-5H-pyrimido[4,5-d]azepine] belongs no less than 90%.
To `CCCc1ccc(C(=O)N2CCc3cnc(N4CCN(C5CCC5)CC4)nc3CC2)cc1` [Compound 362, 2-(4-cyclobutylpiperazin-1-yl)-7-(4-propylbenzoyl)-6,7,8,9-tetrahydro-5H-pyrimido[4,5-d]azepine] belongs no less than 90%; to `CCCCc1ccc(C(=O)N2CCc3cnc(N4CCN(C5CCC5)CC4)nc3CC2)cc1` [Compound 363, 7-(4-butylbenzoyl)-2-(4-cyclobutylpiperazin-1-yl)-6,7,8,9-tetrahydro-5H-pyrimido[4,5-d]azepine], no less than 90%; to `CC(C)(C)c1ccc(C(=O)N2CCc3cnc(N4CCN(C5CCC5)CC4)nc3CC2)cc1` [Compound 364, 7-(4-tert-butylbenzoyl)-2-(4-cyclobutylpiperazin-1-yl)-6,7,8,9-tetrahydro-5H-pyrimido[4,5-d]azepine], no less than 90%.
To `O=C(c1ccc(-c2ccccc2)cc1)N1CCc2cnc(N3CCN(C4CCC4)CC3)nc2CC1` [Compound 365] belongs no less than 90%; to `O=C(c1ccc(OC(F)F)cc1)N1CCc2cnc(N3CCN(C4CCC4)CC3)nc2CC1` [Compound 366, 2-(4-cyclobutylpiperazin-1-yl)-7-[4-(difluoromethoxy)benzoyl]-6,7,8,9-tetrahydro-5H-pyrimido[4,5-d]azepine], no less than 90%.
`CCOc1cccc(C(=O)N2CCc3cnc(N4CCN(C5CCC5)CC4)nc3CC2)c1` [Compound 367, 2-(4-cyclobutylpiperazin-1-yl)-7-(3-ethoxybenzoyl)-6,7,8,9-tetrahydro-5H-pyrimido[4,5-d]azepine]: the inhibition at 4 µM was no less than 90%.
To `CCOc1ccc(C(=O)N2CCc3cnc(N4CCN(C5CCC5)CC4)nc3CC2)cc1` [Compound 368, 2-(4-cyclobutylpiperazin-1-yl)-7-(4-ethoxybenzoyl)-6,7,8,9-tetrahydro-5H-pyrimido[4,5-d]azepine] belongs no less than 90%; to `CSc1ccc(C(=O)N2CCc3cnc(N4CCN(C5CCC5)CC4)nc3CC2)cc1` [Compound 369, 2-(4-cyclobutylpiperazin-1-yl)-7-[4-(methylthio)benzoyl]-6,7,8,9-tetrahydro-5H-pyrimido[4,5-d]azepine], no less than 90%.
